Results published in patent US10752626B2, “Iso-citrate dehydrogenase (IDH) inhibitor” (SHANGHAI METON PHARMACEUTICAL CO., LTD, priority 2016, dated 2020).
Where two headings read alike, the source gives them in different places.

Legend:
[1] = Metabolic stability in mouse plasma; type: in vitro ADME
Protocol: Blank male/female mouse plasma was provided by 3D BioOptima (Suzhou, China) and was freshly collected prior to use. The acetonitrile was purchased from Honeywell International Inc. (New Jersey, U.S.).
At each set time point (0, 15, 30, 60, 120 min), small aliquots from the plasma samples was transferred (each of 20 μL) into the mirocentrifuge tubes, then was added into 200 μL IS containing acetonitrile for protein precipitation. […] All incubations were performed in duplicate. In vitro compound stability was calculated by using the following equations: […]
where Ct is the area ratio of the sample to the IS at […] post-incubation, and C0 is the area ratio of the sample to the IS at 0 h pre-incubation.
In this study, the metabolic stability of the compounds in mouse plasma was assessed according to the method disclosed in Test 3 of the Biological evaluation section.

[2] = In vivo pharmacokinetics in ICR mouse
Protocol: The pharmacokinetic properties of the compounds of the present disclosure were assessed in ICR mice (male, 6-8 weeks, 20.0-25.3 g) after p.o. and i.v. administration.
The ICR mice were purchased from Vital River Laboratory Technology Co., Ltd. (Beijing, China), housed in solid bottom polypropylene cages with sterilized bedding, kept in a room with 40% to 70% humidity, 20 to 25° C. room temperature, 10 to 20 air changes/hour, and on a 12-hour light/dark cycle except when interruptions are necessitated by study activities. The mice were fed with sterilized diet from Shanghai SLAC Laboratory Animal Co., Ltd. (Shanghai, China) and sterilized water. All animals were examined upon receipt and were acclimated for at least 3 days. Only the ones that appear to be healthy were selected for the study basing on overall health, body weight, or other relevant data as appropriate. Individual animal in each group was identified by ear notch.
The mice were fasted overnight prior to treatment, but having free access to drinking water all the time. Before dosing, each mouse was weighed and the actual dose volume for each mouse was calculated by using the formula below: Dose Volume (mL) [Nominal Dose (mg·kg^−1)/Dose Concentration (mg·mL^−1)]×Animal Body Weight (kg)
The actual body weights and the actual dose volumes were recorded accordingly.
For each test group, nine mice were used, and mice in different groups were given a single p.o dose of the test compound at 10 mg·kg^−1, or a single i.v. dose of 2 mg·kg^−1 respectively. Blood samples (e.g., at least […]) were collected into EDTA-K2 tubes at pre-determined time points, for example, pre-dose, 5 min, 15 min, 30 min, 1 h, 2 h, 4 h, 8 h, 12 h, and 24 h post-dose. Each mouse was collected the blood sample at three discontinuous time points, and three mice were used for sampling at each time point. The collected samples were centrifuged at 5500 rpm for 10 min to obtain plasma samples, which were later measured by LC-MS/MS. Data of plasma concentration vs. time were processed by linear regression analysis. All pharmacokinetic parameters were calculated using non-compartment model of Pharsight Phoenix 6.3.
The pharmacokinetics (PK) studies of the compounds were conducted in ICR mice (male, 6-8 weeks, 20.0-25.3 g, Vital River Laboratory Technology Co., Ltd.) administrated a single p.o. dose of 10 mg·kg^−1 or a single i.v. dose of 2 mg·kg^−1 according to the method disclosed in Test 4 of the Biological evaluation section.
Each experiment was independently performed in triplicate. The plasma concentration of an exemplary Compound 23 after a p.o. administration of 10 mg·kg^−1 in ICR mouse is plotted as function of time in FIG. 6. The plasma concentration of the exemplary Compound 23 after an i.v. injection of 2 mg·kg^−1 in ICR mouse is plotted as function of time in FIG. 7. Each data represents the mean plasma concentration of the three experiments with standard error of mean (SEM) as error bars.

[3] = male, plasma, iv, i.v. dose of 2 mg · kg^−1
[4] = male, plasma, po, p.o. dose of 10 mg · kg^−1

CCN1Cc2c(ccnc2N[C@@H](C)c2ccc(Oc3ccc(C)cc3)cc2)C1=O [Compound 16, (S)-2-ethyl-4-(1-(4-(p-tolyloxy)phenyl)ethylamino)-2,3-dihydro-1H-pyrrolo [3,4-c]pyridin-1-one]
period over which compound remains stable in mouse plasma [1]: at least 2 hrs
K ([1]; #2): 0.000737 min⁻¹
K ([1]; Mean): 0.000737 min⁻¹
half-life at 2 μM ([1]; both sexes, #2): 15.7 h
% remaining #1 ([1]; incubation 0 min): 100%
% remaining #2 ([1]; incubation 0 min): 100%
Ln (% remaining) #1 ([1]; incubation 0 min): 4.61
Ln (% remaining) #2 ([1]; incubation 0 min): 4.61
Mean Ln(% remaining) ([1]; incubation 0 min): 4.61
% remaining #1 ([1]; incubation 15 min): 99.8%
% remaining #2 ([1]; incubation 15 min): 106%
Ln (% remaining) #1 ([1]; incubation 15 min): 4.60
Ln (% remaining) #2 ([1]; incubation 15 min): 4.66
Mean Ln(% remaining) ([1]; incubation 15 min): 4.63
% remaining #1 ([1]; incubation 30 min): 95.0%
% remaining #2 ([1]; incubation 30 min): 102%
Ln (% remaining) #1 ([1]; incubation 30 min): 4.55
Ln (% remaining) #2 ([1]; incubation 30 min): 4.62
Mean Ln(% remaining) ([1]; incubation 30 min): 4.59
% remaining #1 ([1]; incubation 60 min): 98.4%
% remaining #2 ([1]; incubation 60 min): 98.9%
Ln (% remaining) #1 ([1]; incubation 60 min): 4.59
Ln (% remaining) #2 ([1]; incubation 60 min): 4.59
Mean Ln(% remaining) ([1]; incubation 60 min): 4.59
% remaining #1 ([1]; incubation 120 min): 105%
% remaining #2 ([1]; incubation 120 min): 94.1%
Ln (% remaining) #1 ([1]; incubation 120 min): 4.65
Ln (% remaining) #2 ([1]; incubation 120 min): 4.54
Mean Ln(% remaining) ([1]; incubation 120 min): 4.60
average percentage remaining ([1]; within the 2 hrs period): above 98.5%

CCN1Cc2c(ccnc2N[C@@H](C)c2ccc(Oc3ccccc3)c(F)c2)C1=O [Compound 23, (S)-2-ethyl-4-((1-(3-fluoro-4-phenoxyphenyl)ethyl)amino)-2,3-dihydro-1H-pyrrolo[3,4-c]pyridin-1-one]
AUMC0-inf ([2]; i.v. dose of 2 mg · kg^−1): 1283 ng · h^2 · mL^−1
AUMC0-t ([2]; i.v. dose of 2 mg · kg^−1): 1138 ng · h^2 · mL^−1
Kel ([2]; i.v. dose of 2 mg · kg^−1): 0.244 h⁻¹
MRTIV ([2]; i.v. dose of 2 mg · kg^−1): 0.98 h
AUC(0-t) [2, 3]: 1300 ng·h/mL
clearance [2, 3]: 25.4 mL/min/kg
half-life [2, 3]: 2.8 h
AUC0-inf ([2]; male, plasma, iv, i.v. dose of 2 mg · kg^−1, read-out: AUC0-inf): 1310 ng·h/mL
Vd ([2]; male, plasma, iv, i.v. dose of 2 mg · kg^−1, read-out: Vdss): 1.49 L/kg
AUC(0-t) [2, 4]: 2890 ng·h/mL
Cmax [2, 4]: 1180 ng/mL
Tmax [2, 4]: 0.25 h
half-life [2, 4]: 1.8 h
AUC0-inf ([2]; p.o. dose of 10 mg · kg^−1): 2917 ng · h · mL^1
AUMC0-inf ([2]; p.o. dose of 10 mg · kg^−1): 7550 ng · h^2 · mL^−1
AUMC0-t ([2]; p.o. dose of 10 mg · kg^−1): 7099 ng · h^2 · mL^−1
F ([2]; p.o. dose of 10 mg · kg^−1): 44%
Kel ([2]; p.o. dose of 10 mg · kg^−1): 0.385 h⁻¹
MRTPO ([2]; p.o. dose of 10 mg · kg^−1): 2.6 h
